Laboratory results published in patent publication US20240408093A1, “HETEROBIFUNCTIONAL COMPOUNDS AND THEIR USE IN TREATING DISEASE” (HALDA THERAPEUTICS OPCO, INC., priority 2022, published 2024).
pEC50, pKd: −log10 of the molar value. Like-named read-outs stand apart in the source and are kept apart here.

Columns and labels:
[1] = test system: HEK293 cells (ATCC CRL-1573); experiment: Cellular growth inhibition assay, HEK293 cells (Example 16); assay type: cell-based; conditions: Homo sapiens, 72 hours, CellTiter-Glo 2.0
Experimental: (§1) Exemplary compounds were tested for ability to inhibit the proliferation of HEK293 cells (ATCC CRL-1573) and HeLa cells (ATCC CCL-2).
(§2) HEK293 and HeLa cells were cultured in DMEM (Gibco 11995), supplemented with 10% Heat-inactivated FBS (Gibco A38400-01) and 1% Penicillin/Streptomycin (Gibco 15140-122) at 37° C. with 5% CO2 in a humidified tissue culture incubator. Cells were seeded at 500 cells/well in 384-well, Poly-D-lysine-treated blackplates (Perkin Elmer 6007710) in 25 μL media lacking selection for 18-24 hours. Plates were spun at 300 g for 30 seconds and stored in the incubator overnight. After 24 hours, a 25 μL aliquot of compound-containing medium was added in each well, at a final top concentration of 10 μM test compound, with 3-fold dilutions, using DMSO alone as a negative control. Plates were then spun at 300×g for 3 minutes again and cultured at 37° C. with 5% CO2. After 72 hours, cell viability was quantified with CellTiter-Glo 2.0 (Promega). After equilibrating cell plates at room temperature for 30 minutes, 25 μL CellTiter-Glo 2.0 reagent was dispensed into each well. Plates were mixed on a shaker for 2 minutes at 500 rpm, followed by a 10-minute incubation at room temperature. Luminescence readings were measured with an EnVision Plate Reader (Perkin Elmer). Data was normalized to DMSO treated cell wells. A four-parameter non-linear regression curve fit was applied to dose-response data in Prism to determine the half maximal growth inhibitory concentration (GI50) of each compound.

HeLa cells (ATCC CCL-2) = experiment: Cellular growth inhibition assay, HeLa cells (Example 16); assay type: cell-based; conditions: Homo sapiens, 72 hours, CellTiter-Glo 2.0
Experimental: as §1, §2

[2] = biological target: T1, EGFR WT (amino acids 669-1011) (Homo sapiens, UniProt P00533); experiment: KdELECT binding assay, EGFR WT
T1 construct: purchased Eurofins Discovery (KdELECT); host or cells: bacteria (E. coli BL21-derived, T7 phage)
T1 sequence (P00533 669-1011): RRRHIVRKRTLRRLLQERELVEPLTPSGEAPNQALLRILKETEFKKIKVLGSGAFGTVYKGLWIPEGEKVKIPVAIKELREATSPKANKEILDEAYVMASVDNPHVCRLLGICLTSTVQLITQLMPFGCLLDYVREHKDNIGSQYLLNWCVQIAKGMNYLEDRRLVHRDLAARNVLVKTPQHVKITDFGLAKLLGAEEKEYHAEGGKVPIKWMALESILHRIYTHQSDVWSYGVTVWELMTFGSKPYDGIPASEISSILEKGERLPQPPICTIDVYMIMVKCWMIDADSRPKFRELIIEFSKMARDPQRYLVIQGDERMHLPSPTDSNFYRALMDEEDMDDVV
Experimental: (§3) Exemplary compounds were tested for ability to bind to EGFR WT (amino acids 669-1011, Accession Number NP_005219.2) or EGFR T790M, L858R (amino acids 669-1011 Accession Number NP_005219.2) expressed from bacteria or mammalian cells, respectively. Compounds were tested using the KdELECT assay at Eurofins Discovery.
(§4) Kinase-tagged T7 phage strains were prepared in an E. coli host derived from the BL21 strain. E. coli were grown to log-phase and infected with T7 phage and incubated with shaking at 32° C. until lysis. The lysates were centrifuged and filtered to remove cell debris. The remaining kinases were produced in HEK-293 cells and subsequently tagged with DNA for qPCR detection. Streptavidin-coated magnetic beads were treated with biotinylated small molecule ligands for 30 minutes at room temperature to generate affinity resins for kinase assays. The liganded beads were blocked with excess biotin and washed with blocking buffer (SeaBlock (Pierce), 1% BSA, 0.05% Tween 20, 1 mM DTT) to remove unbound ligand and to reduce non-specific binding. Binding reactions were assembled by combining kinases, liganded affinity beads, and test compounds in 1x binding buffer (20% SeaBlock, 0.17× PBS, 0.05% Tween 20, 6 mM DTT). Test compounds were prepared as 111× stocks in 100% DMSO. Kd values were determined using an 11-point 3-fold compound dilution series with three DMSO control points. All compounds for Kd measurements are distributed by acoustic transfer (non-contact dispensing) in 100% DMSO. The compounds were then diluted directly into the assays such that the final concentration of DMSO was 0.9%. All reactions performed in polypropylene 384-well plate. Each was a final volume of 0.02 mL. The assay plates were incubated at room temperature with shaking for 1 hour and the affinity beads were washed with wash buffer (1× PBS, 0.05% Tween 20). The beads were then re-suspended in elution buffer (1× PBS, 0.05% Tween 20, 0.5 μM nonbiotinylated affinity ligand) and incubated at room temperature with shaking for 30 minutes. The kinase concentration in the eluates was measured by qPCR.

[3] = biological target: T2, EGFR T790M, L858R (amino acids 669-1011) (Homo sapiens, UniProt P00533, L858R/T790M); experiment: KdELECT binding assay, EGFR T790M, L858R
T2 construct: purchased Eurofins Discovery (KdELECT); host or cells: mammalian cells (HEK-293)
T2 sequence (P00533 669-1011 T790M/L858R): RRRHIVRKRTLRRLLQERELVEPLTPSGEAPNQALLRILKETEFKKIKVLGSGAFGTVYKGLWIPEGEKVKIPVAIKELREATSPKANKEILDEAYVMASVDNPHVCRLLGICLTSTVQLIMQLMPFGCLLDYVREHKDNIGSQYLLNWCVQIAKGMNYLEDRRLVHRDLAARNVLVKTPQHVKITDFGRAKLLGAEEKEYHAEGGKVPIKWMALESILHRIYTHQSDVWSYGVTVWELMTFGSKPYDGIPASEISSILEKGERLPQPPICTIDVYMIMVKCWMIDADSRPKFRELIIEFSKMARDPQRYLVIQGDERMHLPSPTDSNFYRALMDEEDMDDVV
Experimental: as §3, §4

GSPT1 = biological target: T3, GSPT1 (Homo sapiens, UniProt P15170+Q96SW2); experiment: GSPT1 HiBiT degradation assay; assay type: cell-based; conditions: HEK293 LgBiT GSPT1 HiBiT cells, 6 hours
T3 construct: host or cells: HEK293 LgBiT / GSPT1 HiBiT CRISPR knock-in
T3 sequence (P15170 whole entry): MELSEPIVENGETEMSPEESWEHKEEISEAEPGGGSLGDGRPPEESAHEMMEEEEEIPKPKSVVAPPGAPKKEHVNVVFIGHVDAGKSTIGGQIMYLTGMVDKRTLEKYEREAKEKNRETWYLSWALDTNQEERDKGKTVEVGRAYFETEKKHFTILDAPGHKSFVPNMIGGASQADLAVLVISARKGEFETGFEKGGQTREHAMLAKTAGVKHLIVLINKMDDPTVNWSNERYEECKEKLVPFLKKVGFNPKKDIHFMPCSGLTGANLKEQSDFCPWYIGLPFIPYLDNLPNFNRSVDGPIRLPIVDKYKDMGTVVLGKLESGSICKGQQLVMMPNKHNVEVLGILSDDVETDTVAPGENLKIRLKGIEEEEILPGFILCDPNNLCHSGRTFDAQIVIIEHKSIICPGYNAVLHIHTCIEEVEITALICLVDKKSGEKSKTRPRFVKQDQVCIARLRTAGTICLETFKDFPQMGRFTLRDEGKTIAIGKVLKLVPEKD
T3 sequence (Q96SW2 whole entry): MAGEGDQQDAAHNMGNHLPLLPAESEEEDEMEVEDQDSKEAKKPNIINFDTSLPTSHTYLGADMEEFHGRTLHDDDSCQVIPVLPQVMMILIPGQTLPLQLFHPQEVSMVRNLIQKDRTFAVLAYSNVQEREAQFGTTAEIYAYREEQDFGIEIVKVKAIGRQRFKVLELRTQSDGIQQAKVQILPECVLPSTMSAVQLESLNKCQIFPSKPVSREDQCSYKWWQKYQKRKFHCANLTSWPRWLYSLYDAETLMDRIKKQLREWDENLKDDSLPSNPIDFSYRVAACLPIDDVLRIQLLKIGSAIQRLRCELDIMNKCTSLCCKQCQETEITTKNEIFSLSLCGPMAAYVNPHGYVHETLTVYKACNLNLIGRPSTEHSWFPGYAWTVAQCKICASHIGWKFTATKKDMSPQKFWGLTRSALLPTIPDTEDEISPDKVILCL
T3 sequence (Q16531 whole entry partner): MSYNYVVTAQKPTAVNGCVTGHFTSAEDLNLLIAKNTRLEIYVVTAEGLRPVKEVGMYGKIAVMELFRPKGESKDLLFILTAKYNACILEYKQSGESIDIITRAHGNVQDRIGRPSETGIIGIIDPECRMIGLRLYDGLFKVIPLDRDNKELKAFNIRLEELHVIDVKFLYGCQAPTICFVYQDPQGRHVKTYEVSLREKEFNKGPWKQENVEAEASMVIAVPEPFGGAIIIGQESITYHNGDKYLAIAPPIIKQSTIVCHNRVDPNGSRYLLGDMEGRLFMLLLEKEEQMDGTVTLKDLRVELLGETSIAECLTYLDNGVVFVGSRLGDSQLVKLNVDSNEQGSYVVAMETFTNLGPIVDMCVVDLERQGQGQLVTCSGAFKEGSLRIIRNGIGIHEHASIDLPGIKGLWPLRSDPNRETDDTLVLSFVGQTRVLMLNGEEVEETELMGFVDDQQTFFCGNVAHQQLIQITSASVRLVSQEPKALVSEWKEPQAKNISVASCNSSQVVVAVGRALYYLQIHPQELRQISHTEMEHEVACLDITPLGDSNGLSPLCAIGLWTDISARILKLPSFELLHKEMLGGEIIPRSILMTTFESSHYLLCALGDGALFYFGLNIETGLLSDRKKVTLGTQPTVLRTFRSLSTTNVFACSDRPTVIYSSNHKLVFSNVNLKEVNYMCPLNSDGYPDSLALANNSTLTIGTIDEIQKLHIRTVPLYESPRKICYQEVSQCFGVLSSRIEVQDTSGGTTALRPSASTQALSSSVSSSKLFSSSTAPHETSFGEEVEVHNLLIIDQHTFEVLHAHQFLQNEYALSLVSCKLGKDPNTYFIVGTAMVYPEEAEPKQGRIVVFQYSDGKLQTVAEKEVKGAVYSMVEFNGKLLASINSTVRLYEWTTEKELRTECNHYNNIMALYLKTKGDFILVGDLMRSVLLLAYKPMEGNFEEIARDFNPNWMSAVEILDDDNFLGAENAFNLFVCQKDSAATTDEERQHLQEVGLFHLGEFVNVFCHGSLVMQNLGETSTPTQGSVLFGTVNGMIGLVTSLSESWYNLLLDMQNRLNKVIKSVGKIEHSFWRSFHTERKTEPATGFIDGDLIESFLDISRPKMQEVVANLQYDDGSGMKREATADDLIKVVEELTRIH
Text: Promega developed a HEK293 cell line that constitutively expresses LgBiT protein and GSPT1_HiBiT fusion protein. When both proteins are present, the HiBiT portion of the fusion protein combines with LgBiT protein to form a functional luciferase enzyme. Endurazine, a cell permeable small molecule, is converted by cellular esterases into furimazine, which the luciferase enzyme uses as a substrate to generate luminescence. When GSPT1 is degraded, the HiBit is also degraded. This prevents formation of fully functional luciferase, leading to a loss in luminescence. GSPT1 degradation therefore correlates with a decrease in luminescence and can be measured continuously over time. The concentration of compound at which 50% GSPT1 degradation occurs (DC50) may be calculated using this system.
HEK293 LgBiTGSPT1 HiBiT CRISPR Knock-in cells were cultured in DMEM Media supplemented with 10% Heat-inactivated FBS, 1% Penicillin/Streptomycin, 200 μg/mL hygromycin and stored in a humidified incubator set at 37° C. and 5% CO2. 18-24 hours prior to compound treatment, cells were seeded at 1000 cells/well in a 384-well tissue culture-treated white plates in 25 μL media lacking selection for 18-24 hours. The plates were spun at 300 g for 30 seconds and stored in the incubator overnight. After 24 hours, compounds are titrated in DMSO and added to media supplemented with endurazine substrate. A 25 μL aliquot of 2× compound/endurazine in media is then added to the 384-well microplate with seeded cells. (Endurazine is used at a final concentration of 0.5×). The plate was spun at 300 g for 30 seconds and stored in the incubator. After 6 hours, the plate was read on a Perkin Elmer MultiMode Plate Reader Envision 2105 to measure luminescence signal. Data were plotted in Prism (Graphpad) and the concentration of compound at which 50% GSPT1 degradation occurs (DC50) was calculated.

[4] = biological target: T4, EGFR T790M/L858R kinase domain (Homo sapiens, UniProt P00533, L858R/T790M); experiment: EGFR cellular target engagement assay (HEK293 cells stable for EGFR T790M, L858R); assay type: cell-based; conditions: 6 hours, read-out: TE50 (the source's name)
T4 construct: EGFR (amino acids 696-1022, T790M, L858R); expressed in transfected cells; host or cells: HEK293, lentiviral transduction, puromycin selection
T4 sequence (P00533 696-1022 T790M/L858R): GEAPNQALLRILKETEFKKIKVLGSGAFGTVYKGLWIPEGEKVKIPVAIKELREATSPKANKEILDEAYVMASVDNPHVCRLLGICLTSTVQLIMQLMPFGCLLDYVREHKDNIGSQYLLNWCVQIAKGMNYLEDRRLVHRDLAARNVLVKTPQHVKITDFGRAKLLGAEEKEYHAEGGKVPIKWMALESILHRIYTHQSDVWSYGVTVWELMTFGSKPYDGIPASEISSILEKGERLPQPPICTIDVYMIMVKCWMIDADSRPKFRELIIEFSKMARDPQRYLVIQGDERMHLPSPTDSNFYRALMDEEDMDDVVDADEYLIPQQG
Experimental: HEK293 cells were cultured in DMEM (Gibco 11995), supplemented with 10% Heat-inactivated FBS (Gibco A38400-01) and 1% Penicillin/Streptomycin (Gibco 15140-122) at 37° C. with 5% CO2 in a humidified tissue culture incubator. Cells were made stable for EGFR (amino acids 696-1022, T790M, L858R) by lentiviral transduction, followed by selection with 1 μg/ml Puromycin Dihydrochloride (Thermo A1113803). Cells were seeded at 30,000 cells/ml in 0.1 ml of complete media in Poly-D-lysine-treated 96-well plates and incubated overnight. Cells were treated with increasing concentrations of compound and let incubate at 37C and 5% CO2 for 6 hours, after which media was aspirated, washed with 1×PBS and cells were lysed in RIPA Lysis and Extraction Buffer (Thermo 89901) supplemented with 5 mM MgCl2, Protease and Phosphatase inhibitor cocktail (Thermo 1861281), and Universal Nuclease (Thermo 88700). Plates with RIPA were shaken at 4° C. at 600 rpm for 15 min. After shaking samples, they were collected and spun down at 21,000 g for 15 min at 4° C. Following centrifugation, […] of lysate was added to Laemmli Sample Buffer (Bio-Rad 1610747) plus 10% beta-mercaptoethanol, boiled for 15 minutes at 65° C. and loaded onto 4-20% Mini-PROTEAN TGX™ Precast Protein Gels (Bio-Rad). Protein was transferred to a nitrocellulose membrane (Thermo LC2000) using the iBlot 2 Dry Blotting System (Thermo). After transfer, membranes were washed in 1× TBST (Bioland Scientific LLC TBST0103) 3× for 5 min. Following the wash, blocking buffer (Rockland MB-070) was added for 1 hour at room temperature. Primary antibodies against EGFR (Cell Signaling Technology 3197) and actin (Cell Signaling Technology 3700S) were added overnight at 4° C. Membranes were then washed again 3× for 5 min in 1× TBST. Secondary antibodies (LI-COR 926-68072 and 926-68073) were added and shaken for 1 hr at room temperature. Membranes were then washed 3× for 5 min in 1×TBST and developed. Membranes were placed on an Odyssey imager (LI-COR).

CCNK = experiment: Payload release assay (DC50 readout), CCNK degradation in the presence of recombinant target protein; assay type: cell-based; conditions: II-series and V-4 (CCNK readout inferred)
Experimental: Exemplary compounds were tested for ability to cause degradation of CCNK or GSPT1 in the presence of recombinant target protein.
HEK293 LgBiT/GSPT1 HiBiT CRISPR Knock-in cells (Promega) were cultured in DMEM (Gibco 11995), supplemented with 10% Heat-inactivated FBS (Gibco A38400-01) and 1% Penicillin/Streptomycin (Gibco 15140-122) and 200 Vg/ml Hygromycin B (Gibco 10-687-010) at 37° C. with 5% CO2 in a humidified tissue culture incubator. HEK293 LgBiT/CCNK HiBiT cells (in-house, described above) were cultured in DMEM (Gibco 11995), supplemented with 10% Heat-inactivated FBS (Gibco A38400-01) and 1% Penicillin/Streptomycin (Gibco 15140-122) 200 Vg/ml Hygromycin B (Gibco 10-687-010), and 1 Vg/ml Puromycin Dihydrochloride (Thermo A1113803) at 37° C. with 5% CO2 in a humidified tissue culture incubator. Cells were seeded (1000 cells/well for HEK293 LgBiT/GSPT1 HiBiT cells or 3000 cells/well for HEK293 LgBiT/CCNK HiBiT cells) 384-well, tissue culture-treated white plates (Perkin Elmer 6007680) in 10 μL media lacking selection for 18-24 hours. Plates were spun at 300 g for 30 seconds and stored in the incubator overnight. After 24 hours, a 5 μL aliquot of recombinant target protein (final concentration of either 5 μM KRAS amino acids 1-169, C51S, C80L, C118S, G12C or 3 μM EGFR amino acids 696-1022 or 3 μM EGFR amino acids 696-1022, T790M, L858R) was added to wells, followed immediately by a 5 μL aliquot of 4× compound-containing medium supplemented with Endurazine Substrate (Promega N2570) was added in each well, at a final top concentration of 10 μM test compound and 0.5× Endurazine, with 4-fold dilutions, using DMSO alone as a negative control. Plates were then spun at 300×g for 3 minutes again and cultured at 37° C. with 5% CO2. After 6 hours the plate was read on Envision MultiMode Plate Reader 2105 (Perkin Elmer) to measure luminescence signal. Data was normalized to DMSO treated cell wells. A four-parameter non-linear regression curve fit was applied to dose-response data in Prism to determine the half maximal growth inhibitory concentration (GI50) of each compound.

| GI50 (HeLa cells (ATCC CCL-2)) [µM] | pKd [2] | pKd [3] | DC50 (GSPT1) [nM] | pEC50 [4] | DC50 (CCNK; 0 μM recombinant EGFR T790M L858R, read-out: DC50 at 0 μM EGFR T790M L858R) [µM] | DC50 (CCNK; 0 μM recombinant EGFR WT, read-out: DC50 at 0 μM EGFR WT) [µM] | Compound | GI50 [1] [µM] |
| --- | --- | --- | --- | --- | --- | --- | --- | --- |
| > 10 | < 5.60 | < 5.60 | > 2500 | < 5.00 | – | – | C=C(CN(C(=O)NCc1ccc2c(c1)CN(C1CCC(=O)NC1=O)C2=O)c1ccc(C)c(Cl)c1)C(=O)N[C@@H]1CN(c2nc(Nc3cn(C)nc3OC)c3ncn(C)c3n2)C[C@H]1F (stereo partly drawn) [Compound I-41] | 1.5 to 10 |
| 1.5 to 10 | < 5.60 | < 5.60 | – | – | 5 to 10 | 5 to 10 | C=C(Cn1c(CNc2nc(N3CCN(C)CC3)nc3c(Br)cnn23)nc2c(F)c(F)ccc21)C(=O)N[C@@H]1CN(c2nc(Nc3cn(C)nc3OC)c3ncn(C)c3n2)C[C@H]1F [II-182] | 1.5 to 10 |
